Assays:
[1] = 1-Octanol/aqueous buffer partition coefficient, logD of the compound at pH 7.4 by chromatographic method based UV-visible detector; format: physicochemical
Glutamate receptor 2 = Glutamate receptor 2 (Homo sapiens, UniProt P42262); assay: Displacement of [3H]-HBT1 from His-tagged GluA2-AMPA receptor LBD (unknown origin) in presence of glutamate by scintillation proximity assay
[2] = molecular target: Glutamate receptor ionotropic, NMDA 2A (Homo sapiens, UniProt Q05586+Q12879); assay: Positive allosteric modulator activity at GluN2A NMDA receptor (unknown origin) expressed in CHO cells co-expressing GluN1a in the presence of L-glutamate and glycine by Ca2+ influx assay; format: cell-based
Sequence of Glutamate receptor ionotropic, NMDA 2A (Q12879 whole entry, one chain of several): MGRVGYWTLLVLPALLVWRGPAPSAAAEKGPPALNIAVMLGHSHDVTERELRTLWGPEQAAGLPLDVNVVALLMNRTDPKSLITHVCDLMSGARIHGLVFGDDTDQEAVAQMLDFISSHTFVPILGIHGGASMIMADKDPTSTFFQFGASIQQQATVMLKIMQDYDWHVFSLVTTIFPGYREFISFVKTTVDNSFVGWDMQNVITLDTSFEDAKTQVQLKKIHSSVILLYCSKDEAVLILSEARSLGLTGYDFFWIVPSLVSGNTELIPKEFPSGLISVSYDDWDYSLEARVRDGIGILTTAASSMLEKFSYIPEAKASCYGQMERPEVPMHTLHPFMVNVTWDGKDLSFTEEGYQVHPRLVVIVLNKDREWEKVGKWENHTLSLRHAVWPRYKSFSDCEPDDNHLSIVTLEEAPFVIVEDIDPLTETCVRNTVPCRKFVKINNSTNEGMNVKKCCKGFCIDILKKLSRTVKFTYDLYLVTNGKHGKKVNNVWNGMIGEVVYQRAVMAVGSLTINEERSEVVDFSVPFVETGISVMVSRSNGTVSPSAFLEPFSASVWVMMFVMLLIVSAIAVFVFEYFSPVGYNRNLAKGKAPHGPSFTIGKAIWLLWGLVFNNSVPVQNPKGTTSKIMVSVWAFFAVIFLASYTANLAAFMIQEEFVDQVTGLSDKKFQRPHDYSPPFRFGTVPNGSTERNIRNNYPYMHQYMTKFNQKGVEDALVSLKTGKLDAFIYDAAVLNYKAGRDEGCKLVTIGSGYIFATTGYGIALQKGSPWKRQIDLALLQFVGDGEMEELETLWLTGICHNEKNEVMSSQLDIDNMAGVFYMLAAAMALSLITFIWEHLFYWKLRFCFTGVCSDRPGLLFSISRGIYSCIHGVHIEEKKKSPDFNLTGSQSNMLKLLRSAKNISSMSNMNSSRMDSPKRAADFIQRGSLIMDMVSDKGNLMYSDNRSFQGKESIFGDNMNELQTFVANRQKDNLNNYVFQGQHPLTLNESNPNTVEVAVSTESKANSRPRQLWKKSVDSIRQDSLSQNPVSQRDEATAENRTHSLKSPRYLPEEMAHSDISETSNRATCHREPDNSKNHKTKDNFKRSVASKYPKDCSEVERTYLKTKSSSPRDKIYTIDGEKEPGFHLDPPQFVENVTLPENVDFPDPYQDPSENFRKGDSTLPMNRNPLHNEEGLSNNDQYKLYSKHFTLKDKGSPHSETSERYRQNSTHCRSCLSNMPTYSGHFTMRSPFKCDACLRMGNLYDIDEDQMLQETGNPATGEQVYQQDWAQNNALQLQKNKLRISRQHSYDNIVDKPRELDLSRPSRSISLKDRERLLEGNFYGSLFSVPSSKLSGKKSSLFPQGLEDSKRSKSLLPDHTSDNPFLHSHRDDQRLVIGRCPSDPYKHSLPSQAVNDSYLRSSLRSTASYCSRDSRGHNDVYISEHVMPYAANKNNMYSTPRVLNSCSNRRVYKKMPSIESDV

[3] = Metabolic stability in human liver microsomes assessed as clearance at 1 uM incubated for 15 to 30 mins in the presence of NADPH generating system by LC-MS/MS analysis; format: ADME, Microsome; details: time 15-30 min, read-out: CLH
[4] = Metabolic stability in rat liver microsomes assessed as clearance at 1 uM incubated for 15 to 30 mins in the presence of NADPH generating system by LC-MS/MS analysis; format: ADME, Microsome; details: time 15-30 min, read-out: CLH
[5] = Drug concentration in Sprague-Dawley rat brain at 10 mg/kg, po measured after 2 hrs by LC-MS/MS analysis; format: ADME, organism-based; details: read-out: Ct
[6] = molecular target: Glutamate receptor ionotropic, NMDA 2B (Homo sapiens, UniProt Q05586+Q13224); assay: Positive allosteric modulator activity at GluN2B NMDA receptor (unknown origin) expressed in CHO cells co-expressing GluN1a in the presence of L-glutamate and glycine by Ca2+ influx assay; format: cell-based
[7] = molecular target: Glutamate receptor ionotropic, NMDA 2C (Homo sapiens, UniProt Q05586+Q14957); assay: Positive allosteric modulator activity at GluN2C NMDA receptor (unknown origin) expressed in CHO cells co-expressing GluN1a in the presence of L-glutamate and glycine by Ca2+ influx assay; format: cell-based
Sequence of Glutamate receptor ionotropic, NMDA 2C (Q14957 whole entry, one chain of several): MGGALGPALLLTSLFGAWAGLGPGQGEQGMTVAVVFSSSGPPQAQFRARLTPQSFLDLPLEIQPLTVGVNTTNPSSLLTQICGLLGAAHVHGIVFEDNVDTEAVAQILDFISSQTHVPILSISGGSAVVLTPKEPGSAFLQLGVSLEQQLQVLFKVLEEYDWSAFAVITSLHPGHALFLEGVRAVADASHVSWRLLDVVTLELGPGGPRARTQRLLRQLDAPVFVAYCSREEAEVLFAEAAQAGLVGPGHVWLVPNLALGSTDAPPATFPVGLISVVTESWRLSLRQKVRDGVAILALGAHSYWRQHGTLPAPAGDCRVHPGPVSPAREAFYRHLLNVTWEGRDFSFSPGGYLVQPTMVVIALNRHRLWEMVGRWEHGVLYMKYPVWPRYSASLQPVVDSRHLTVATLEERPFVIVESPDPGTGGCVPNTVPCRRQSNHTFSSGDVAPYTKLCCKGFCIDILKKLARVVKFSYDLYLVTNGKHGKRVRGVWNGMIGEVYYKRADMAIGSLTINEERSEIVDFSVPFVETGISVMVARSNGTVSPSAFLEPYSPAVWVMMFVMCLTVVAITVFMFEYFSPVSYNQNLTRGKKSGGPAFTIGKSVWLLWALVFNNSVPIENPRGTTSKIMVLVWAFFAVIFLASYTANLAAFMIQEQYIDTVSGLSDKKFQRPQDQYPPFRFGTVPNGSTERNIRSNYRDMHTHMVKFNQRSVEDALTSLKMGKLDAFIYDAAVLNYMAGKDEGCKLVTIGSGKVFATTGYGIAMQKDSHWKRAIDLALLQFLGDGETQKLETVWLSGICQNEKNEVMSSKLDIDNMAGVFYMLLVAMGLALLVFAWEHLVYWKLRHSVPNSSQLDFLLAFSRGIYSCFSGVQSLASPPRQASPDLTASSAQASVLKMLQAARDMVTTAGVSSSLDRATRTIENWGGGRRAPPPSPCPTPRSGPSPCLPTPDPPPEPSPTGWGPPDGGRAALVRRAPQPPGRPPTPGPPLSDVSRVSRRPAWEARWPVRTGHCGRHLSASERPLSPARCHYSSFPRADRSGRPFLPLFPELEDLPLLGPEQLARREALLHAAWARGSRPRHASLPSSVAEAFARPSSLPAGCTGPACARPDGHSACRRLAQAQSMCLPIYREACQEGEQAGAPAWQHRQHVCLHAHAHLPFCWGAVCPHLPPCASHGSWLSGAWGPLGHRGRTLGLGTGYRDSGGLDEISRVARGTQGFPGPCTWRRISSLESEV

[8] = Drug concentration in Sprague-Dawley rat plasma at 10 mg/kg, po measured after 0.5 hrs by LC-MS/MS analysis; format: ADME, organism-based
[9] = Drug concentration in Sprague-Dawley rat plasma at 10 mg/kg, po measured after 2 hrs by LC-MS/MS analysis; format: ADME, organism-based
[10] = Drug concentration in Sprague-Dawley rat brain at 10 mg/kg, po measured after 0.5 hrs by LC-MS/MS analysis; format: ADME, organism-based; details: read-out: Ct
[11] = molecular target: Glutamate receptor ionotropic, NMDA 2D (Homo sapiens, UniProt O15399+Q05586); assay: Positive allosteric modulator activity at GluN2D NMDA receptor (unknown origin) expressed in CHO cells co-expressing GluN1a in the presence of L-glutamate and glycine by Ca2+ influx assay; format: cell-based
Sequence of Glutamate receptor ionotropic, NMDA 2D (O15399 whole entry, one chain of several): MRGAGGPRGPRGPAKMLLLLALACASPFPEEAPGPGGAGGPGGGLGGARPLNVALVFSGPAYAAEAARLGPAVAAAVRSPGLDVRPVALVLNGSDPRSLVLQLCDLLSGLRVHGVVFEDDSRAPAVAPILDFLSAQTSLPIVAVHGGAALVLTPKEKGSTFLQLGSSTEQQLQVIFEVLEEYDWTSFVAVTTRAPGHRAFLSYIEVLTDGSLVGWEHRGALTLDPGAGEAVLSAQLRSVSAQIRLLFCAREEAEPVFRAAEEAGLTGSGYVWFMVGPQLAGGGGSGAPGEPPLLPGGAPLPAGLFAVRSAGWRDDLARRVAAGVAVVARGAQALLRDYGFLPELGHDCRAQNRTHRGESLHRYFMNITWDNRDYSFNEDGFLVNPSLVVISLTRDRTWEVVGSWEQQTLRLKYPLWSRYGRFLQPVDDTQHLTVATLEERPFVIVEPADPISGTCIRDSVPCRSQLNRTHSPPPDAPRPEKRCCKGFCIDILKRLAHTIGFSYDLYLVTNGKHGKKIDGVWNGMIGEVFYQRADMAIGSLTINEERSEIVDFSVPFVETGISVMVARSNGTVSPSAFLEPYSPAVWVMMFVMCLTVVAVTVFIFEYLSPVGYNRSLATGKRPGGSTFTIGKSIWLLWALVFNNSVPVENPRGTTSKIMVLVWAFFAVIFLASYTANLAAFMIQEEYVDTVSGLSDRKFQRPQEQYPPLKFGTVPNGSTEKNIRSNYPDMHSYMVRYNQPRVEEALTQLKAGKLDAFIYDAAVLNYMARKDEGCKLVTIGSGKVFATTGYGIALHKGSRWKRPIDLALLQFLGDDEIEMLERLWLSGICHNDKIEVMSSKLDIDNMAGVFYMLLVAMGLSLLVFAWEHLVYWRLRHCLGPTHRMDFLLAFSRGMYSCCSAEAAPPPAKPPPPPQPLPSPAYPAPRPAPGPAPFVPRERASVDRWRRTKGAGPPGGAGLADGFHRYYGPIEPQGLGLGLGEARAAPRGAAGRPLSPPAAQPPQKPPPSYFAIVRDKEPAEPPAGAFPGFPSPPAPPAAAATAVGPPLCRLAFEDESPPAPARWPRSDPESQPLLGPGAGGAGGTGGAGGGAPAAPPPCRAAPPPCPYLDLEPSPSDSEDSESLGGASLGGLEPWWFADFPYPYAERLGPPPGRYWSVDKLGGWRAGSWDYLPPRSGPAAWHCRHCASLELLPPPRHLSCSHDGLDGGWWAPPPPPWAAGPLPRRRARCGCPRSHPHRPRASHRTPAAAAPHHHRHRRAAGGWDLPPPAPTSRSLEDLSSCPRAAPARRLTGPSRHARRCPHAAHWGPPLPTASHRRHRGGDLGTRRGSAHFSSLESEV

[12] = Drug concentration in Sprague-Dawley rat brain at 10 mg/kg, po measured after 1 hrs by LC-MS/MS analysis; format: ADME, organism-based; details: read-out: Ct
[13] = Drug concentration in Sprague-Dawley rat plasma at 10 mg/kg, po measured after 1 hrs by LC-MS/MS analysis; format: ADME, organism-based

Sequence of Glutamate receptor 2 (P42262 whole entry, the tested form may be a part): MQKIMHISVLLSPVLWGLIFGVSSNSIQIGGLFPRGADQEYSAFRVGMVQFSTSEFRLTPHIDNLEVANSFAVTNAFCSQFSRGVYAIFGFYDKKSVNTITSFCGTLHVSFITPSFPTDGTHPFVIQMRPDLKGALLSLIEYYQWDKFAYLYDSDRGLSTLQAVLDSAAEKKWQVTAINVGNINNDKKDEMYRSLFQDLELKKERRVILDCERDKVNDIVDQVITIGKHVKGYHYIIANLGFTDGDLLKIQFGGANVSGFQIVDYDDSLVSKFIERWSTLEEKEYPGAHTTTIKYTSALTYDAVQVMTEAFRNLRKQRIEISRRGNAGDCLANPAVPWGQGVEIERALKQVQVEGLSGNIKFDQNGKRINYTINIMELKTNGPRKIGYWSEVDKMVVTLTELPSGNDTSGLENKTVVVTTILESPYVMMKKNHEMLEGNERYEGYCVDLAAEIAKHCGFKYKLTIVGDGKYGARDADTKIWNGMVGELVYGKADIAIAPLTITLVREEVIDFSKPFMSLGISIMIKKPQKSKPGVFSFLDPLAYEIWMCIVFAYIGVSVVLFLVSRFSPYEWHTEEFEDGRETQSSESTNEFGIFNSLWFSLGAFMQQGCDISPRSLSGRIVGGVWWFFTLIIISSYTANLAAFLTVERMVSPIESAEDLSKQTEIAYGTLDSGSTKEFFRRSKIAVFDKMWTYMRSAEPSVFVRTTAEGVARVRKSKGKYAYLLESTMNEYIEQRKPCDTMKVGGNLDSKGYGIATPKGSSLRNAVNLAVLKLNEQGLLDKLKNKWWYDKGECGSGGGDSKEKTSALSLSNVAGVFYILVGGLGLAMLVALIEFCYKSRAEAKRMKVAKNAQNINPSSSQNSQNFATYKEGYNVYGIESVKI

Compound | chromatographic logD [1] | IC50 (Glutamate receptor 2) [µM] | EC50 [2] [µM] | microsomal CLint at 1 µM [3] [µL/min/mg] | microsomal CLint at 1 µM [4] [µL/min/mg] | also measured
CCN(Cc1cc(C)n(C[C@@H]2C[C@H]2C#N)c(=O)c1)c1ccc(F)cc1 | 2.4 | 16 | – | – | – | –
Cc1cccc(Cc2cc(C)n(C[C@H]3C[C@@H]3C#N)c(=O)c2)c1 | 2.4 | > 30 | > 30 | 15 | 26 | –
CCN(Cc1cc(C)n(C[C@H]2C[C@@H]2C#N)c(=O)c1)c1ccc(F)cc1 | 2.4 | 11 | – | 48 | > 768 | –
CCN(Cc1cc(C)n(Cc2ccccc2)c(=O)c1)c1ccc(F)cc1 | 3.5 | 5.5 | > 30 | – | – | –
Cc1cc(Cc2cccc(Cl)c2)cc(=O)n1C[C@H]1C[C@@H]1C#N | 2.3 | > 30 | – | – | 75 | –
Cc1cc(Cn2nc(Br)cc2Cl)cc(=O)n1C[C@H]1C[C@@H]1C#N | 1.6 | > 30 | – | 28 | 14 | concentration at 2 h [5]: 71 ng/g; EC50 [6]: > 30 µM; EC50 [7]: 1.9 µM; concentration at 0.5 h [8]: 926 ng/mL; concentration at 2 h [9]: 362 ng/mL; concentration at 0.5 h [10]: 262 ng/g; EC50 [11]: 5.1 µM; concentration at 1 h [12]: 111 ng/g; concentration at 1 h [13]: 590 ng/mL
CCN(Cc1cc(C)n(CCCC#N)c(=O)c1)c1ccc(F)cc1 | 2.4 | 4.3 | > 30 | – | – | –
Cc1cc(Cc2cccc(Br)c2)cc(=O)n1C[C@H]1C[C@@H]1C#N | 2.5 | > 30 | – | 24 | 72 | –
Cc1cc(Cn2nc(Cl)cc2Cl)cc(=O)n1C[C@H]1C[C@@H]1C#N | 1.6 | > 30 | – | 12 | 22 | –
CCN(Cc1cc(C)n(CC2(C#N)CC2)c(=O)c1)c1ccc(F)cc1 | 2.5 | 2.3 | > 30 | – | – | –
Cc1cc(Cn2nc(C(F)F)cc2Cl)cc(=O)n1C[C@H]1C[C@@H]1C#N | 1.4 | > 30 | – | – | – | –
Cc1cc(Cn2nc(C(F)(F)F)cc2Cl)cc(=O)n1C[C@H]1C[C@@H]1C#N | 1.8 | 21 | – | 2 | 22 | –
CCN(Cc1cc(C)n(C[C@@H]2C[C@H]2C#N)c(=O)c1)c1ccc(F)cc1 (racemic) | – | 10 | – | – | – | –

More lines, main results first:

chromatographic logD [1] | IC50 (Glutamate receptor 2) [µM] | EC50 [2] [µM] | microsomal CLint at 1 µM [3] [µL/min/mg] | microsomal CLint at 1 µM [4] [µL/min/mg] | Compound | also measured
2.9 | 2.3 | 13 | – | – | CCN(Cc1cc(=O)n(CC2CC2)c(C)n1)c1ccc(F)cc1 | –
2.8 | 0.75 | – | – | – | CCN(Cc1ccn(CC2CC2)c(=O)c1)c1ccc(F)cc1 | –
3.2 | 9.9 | – | – | – | CCN(Cc1cc(C)n(CC2CC2)c(=O)c1)c1ccc(F)cc1 | –
3.6 | 1.2 | 23 | – | – | CCN(Cc1cc(C)n(CC2CCC2)c(=O)c1)c1ccc(F)cc1 | –
3.6 | – | 13 | – | – | CCc1cc(CN(CC)c2ccc(F)cc2)cc(=O)n1CC1CC1 | –
4 | > 30 | 12 | – | – | CCCc1cc(CN(CC)c2ccc(F)cc2)cc(=O)n1CC1CC1 | –
